Results reported in patent publication US9999222B2, “Herbicidal combination comprising azines” (BASF SE, priority 2014, dated 2018).
Several values for one entry are separate records, joined by “and”; a condition that tells them apart may be missing. Identical values can stand only once. Like-named read-outs stand apart in the source and are kept apart here.

Columns and labels:
Assay in all cases: Greenhouse test, pre-emergence treatment
BRADC = assay type: in vivo, Brachiaria decumbens
Summary of the method: (§1)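 Seeds were sown in loamy sand with about 3.0% humus, and compounds in water were sprayed immediately after sowing, alone or as combinations formulated as 10% emulsion concentrates. Plants grew under hoods until rooted, at 10-25 °C or 20-35 °C by species, for 2 to 4 weeks. Damage was scored 0-100 (100 = no emergence or complete destruction), and Colby expected values were E=X+Y−(X·Y/100).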

AVEFA = assay type: in vivo, Avena fatua; conditions: for inhibition at 125 g/ha / inhibition at 250 g/ha: Avena fatua, 480 h; for inhibition at 125 g/ha: 125 g ai/ha
Summary of the method: as §1

COMBE = assay type: in vivo, Commelina benghalensis; conditions: Commelina benghalensis, pre-emergence, 480 h, pre-emergence, 250 g ai/ha; read-out: observed % activity 20 DAT
Summary of the method: as §1

SORHA = assay type: in vivo, Sorghum halepense; conditions: Sorghum halepense, pre-emergence, 480 h; 250 g ai/ha, 20 DAT; read-out: observed % activity
ECHCG = assay type: in vivo, Echinocloa crus-galli; conditions: Echinochloa crus-galli, 480 h, read-out: observed % activity 20 DAT
Summary of the method: as §1

PHACA = assay type: in vivo, Phalaris canariensis; conditions: for inhibition at 250 g/ha: 250 g ai/ha
Summary of the method: as §1

GALAP = assay type: in vivo, Galium aparine; conditions: Galium aparine, pre-emergence, 480 h; for inhibition at 125 g/ha: 125 g ai/ha
Summary of the method: as §1

CENCY = assay type: in vivo; conditions: 480 h, read-out: observed % activity 20 DAT
ALOMY = assay type: in vivo, Alopecurus myosuroides
Summary of the method: as §1

KCHSC = assay type: in vivo, Kochia scoparia; conditions: Bassia scoparia, pre-emergence, 480 h, pre-emergence, 125 g ai/ha; read-out: observed % activity 20 DAT
Summary of the method: as §1

POLCO = assay type: in vivo, Polygonum convolvulus; conditions: Fallopia convolvulus, pre-emergence, 480 h, pre-emergence
Summary of the method: as §1

EPHHL = assay type: in vivo, Euphorbia heterophylla; conditions: Euphorbia heterophylla, pre-emergence, 480 h, pre-emergence, 250 g ai/ha; read-out: observed % activity 20 DAT
Summary of the method: as §1

LOLMU = assay type: in vivo, Lolium multiflorum; conditions: pre-emergence
Summary of the method: as §1

[1] = 62, 5 g ai/ha, 20 DAT, read-out: observed % activity

Structure (SMILES): CSc1nnc(C(C)(C)C)c(=O)n1N [metribuzin]
- observed % activity (BRADC; 62, 5 g ai/ha, 20 DAT): 50%
- inhibition at 62.5 g/ha (BRADC; Urochloa decumbens, pre-emergence, 480 h, pre-emergence, 62.5 g ai/ha, read-out: observed % activity 20 DAT): 45%
- observed % activity 20 DAT (BRADC; pre-emergence, 250 g ai/ha): 40%
- observed % activity (AVEFA; 62, 5 g ai/ha, 20 DAT): 0%
- inhibition at 125 g/ha (AVEFA; pre-emergence, 20 DAT, read-out: observed % activity): 10%
- inhibition at 250 g/ha (AVEFA; pre-emergence, 250 g ai/ha, 20 DAT, read-out: observed % activity): 55%
- inhibition at 125 g/ha (AVEFA; pre-emergence, pre-emergence, read-out: observed % activity 20 DAT): 80%
- inhibition at 250 g/ha (AVEFA; pre-emergence, pre-emergence, 250 g ai/ha, read-out: observed % activity 20 DAT): 70%
- observed % activity 20 DAT (AVEFA; pre-emergence, 250 g ai/ha): 65%
- inhibition at 250 g/ha (COMBE): 90%
- inhibition at 250 g/ha (SORHA): 45%
- inhibition at 125 g/ha (ECHCG; 125 g ai/ha): 80%
- inhibition at 250 g/ha (ECHCG; 250 g ai/ha): 95%
- observed % activity (PHACA; 62, 5 g ai/ha, 20 DAT): 30%
- inhibition at 125 g/ha (PHACA; Phalaris canariensis, pre-emergence, 480 h, 125 g ai/ha, 20 DAT, read-out: observed % activity): 70%
- inhibition at 250 g/ha (PHACA; Phalaris canariensis, pre-emergence, 480 h, 20 DAT, read-out: observed % activity): 90%
- inhibition at 62.5 g/ha (PHACA; Phalaris canariensis, pre-emergence, 480 h, pre-emergence, 62.5 g ai/ha, read-out: observed % activity 20 DAT): 15%
- inhibition at 125 g/ha (PHACA; Phalaris canariensis, pre-emergence, 480 h, pre-emergence, 125 g ai/ha, read-out: observed % activity 20 DAT): 65%
- inhibition at 250 g/ha (PHACA; Phalaris canariensis, pre-emergence, 480 h, pre-emergence, read-out: observed % activity 20 DAT): 95%
- observed % activity 20 DAT (PHACA; pre-emergence, 125 g ai/ha): 75%
- inhibition at 125 g/ha (GALAP; 20 DAT, read-out: observed % activity): 30%
- inhibition at 250 g/ha (GALAP; 250 g ai/ha, 20 DAT, read-out: observed % activity): 30%
- inhibition at 125 g/ha (GALAP; read-out: observed % activity 20 DAT): 20%
- pest or weed control at 62.5 g/ha (GALAP; [1]): 30%
- inhibition at 125 g/ha (CENCY; 125 g ai/ha): 75%
- inhibition at 250 g/ha (CENCY; 250 g ai/ha): 85%
- observed % activity (ALOMY; 62, 5 g ai/ha, 20 DAT): 35%
- inhibition at 250 g/ha (ALOMY; Alopecurus myosuroides, pre-emergence, 480 h, 250 g ai/ha, 20 DAT, read-out: observed % activity): 98%
- inhibition at 62.5 g/ha (ALOMY; Alopecurus myosuroides, pre-emergence, 480 h, pre-emergence, 62.5 g ai/ha, read-out: observed % activity 20 DAT): 0%
- inhibition at 125 g/ha (ALOMY; Alopecurus myosuroides, pre-emergence, 480 h, pre-emergence, 125 g ai/ha, read-out: observed % activity 20 DAT): 80%
- inhibition at 250 g/ha (ALOMY; Alopecurus myosuroides, pre-emergence, 480 h, pre-emergence, 250 g ai/ha, read-out: observed % activity 20 DAT): 90%
- observed % activity 20 DAT (ALOMY; pre-emergence, 250 g ai/ha): 75%
- inhibition at 125 g/ha (KCHSC): 95%
- inhibition at 125 g/ha (POLCO; 125 g ai/ha, read-out: observed % activity 20 DAT): 20%
- inhibition at 250 g/ha (POLCO; 250 g ai/ha, read-out: observed % activity 20 DAT): 20%
- pest or weed control at 62.5 g/ha (POLCO; [1]): 0%
- inhibition at 250 g/ha (EPHHL): 85%
- inhibition at 125 g/ha (LOLMU; Lolium multiflorum, 480 h, 125 g ai/ha, 20 DAT, read-out: observed % activity): 60%
- inhibition at 250 g/ha (LOLMU; Lolium multiflorum, 480 h, 250 g ai/ha, 20 DAT, read-out: observed % activity): 90%
- inhibition at 62.5 g/ha (LOLMU; Lolium multiflorum, 480 h, 62.5 g ai/ha, read-out: observed % activity 20 DAT): 0%
- inhibition at 125 g/ha (LOLMU; Lolium multiflorum, 480 h, 125 g ai/ha, read-out: observed % activity 20 DAT): 55%
- observed % activity 20 DAT (LOLMU; 125 g ai/ha): 65%
- observed % activity 20 DAT (LOLMU; 250 g ai/ha): 45% and 75%
